Test results from patent US9770481B2, “Inhibitors of NOX1” (UNIVERSITY OF PITTSBURGH—OF THE COMMONWEALTH SYSTEM OF …, priority 2011, dated 2017).
Ends that are not written are not given here.

Assays:
[1] = tested on: human pulmonary artery endothelial cells; assay: Hypoxia-induced superoxide production by human pulmonary artery endothelial cells; type: cell-based
Experimental: Experiments were also performed to evaluate the effect of NoxA1ds on hypoxia-induced superoxide production by human pulmonary artery endothelial cells.

[2] = tested on: HT-29 colon adenocarcinoma cells; assay: O2- production by HT-29 cells (SOD inhibitable reduction of cytochrome c); type: cell-based; details: increasing doses
[3] = biological target: T1, interaction between Nox1 and NoxA1 (Homo sapiens, UniProt Q9Y5S8); assay: FRET between Nox1-YFP and NoxA1-CFP in transfected COS22 cells; type: cell-based; details: 10 μM, one hour prior to imaging
T1 construct: expressed in transfected cells; host or cells: COS22
T1 sequence (Q9Y5S8 1-564): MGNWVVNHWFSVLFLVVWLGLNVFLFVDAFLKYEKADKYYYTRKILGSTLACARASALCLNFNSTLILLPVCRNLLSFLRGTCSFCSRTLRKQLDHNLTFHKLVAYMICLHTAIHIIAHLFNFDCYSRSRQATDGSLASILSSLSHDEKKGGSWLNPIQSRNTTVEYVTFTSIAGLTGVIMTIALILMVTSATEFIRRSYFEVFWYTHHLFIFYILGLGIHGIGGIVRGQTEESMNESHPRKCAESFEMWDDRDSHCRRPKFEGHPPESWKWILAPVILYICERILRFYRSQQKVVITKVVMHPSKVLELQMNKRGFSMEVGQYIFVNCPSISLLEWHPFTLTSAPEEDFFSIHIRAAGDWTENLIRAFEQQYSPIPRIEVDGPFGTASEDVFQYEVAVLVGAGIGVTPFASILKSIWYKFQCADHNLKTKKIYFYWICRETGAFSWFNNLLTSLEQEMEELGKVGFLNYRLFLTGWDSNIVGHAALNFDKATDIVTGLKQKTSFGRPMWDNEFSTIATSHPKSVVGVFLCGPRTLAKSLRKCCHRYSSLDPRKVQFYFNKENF
T1 sequence (P13498 2-195 partner limits assumed): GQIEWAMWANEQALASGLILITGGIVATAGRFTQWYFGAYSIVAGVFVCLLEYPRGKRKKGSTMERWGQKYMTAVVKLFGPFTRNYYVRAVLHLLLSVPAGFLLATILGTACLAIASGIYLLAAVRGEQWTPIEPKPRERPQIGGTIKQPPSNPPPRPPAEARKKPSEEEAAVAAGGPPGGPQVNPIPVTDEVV
Experimental: FRET (fluorescence resonance energy transfer) studies were performed to study the effect of NoxA1ds on the interaction between Nox1 and NoxA1: In particular, FRET between Nox1-YFP and NoxA1-CFP transfected COS22 cells in the presence or absence of 10 μM NoxA1ds or SCRMB was evaluated. Relative fluorescence of CFP is green while YFP is red. Traces underneath the images indicate fluorescent intensities of CFP and YFP underneath the arrow overlaid on each cell.

Nox1 = biological target: T2, Nox1 (Homo sapiens, UniProt Q9Y5S8); assay: O2- production by COS22 cells transfected with Nox1 (cytochrome c reduction); type: cell-based; details: increasing concentrations
T2 construct: expressed in transfected cells; host or cells: COS22 (monkey kidney COS cells stably expressing human p22phox)
T2 sequence (Q9Y5S8 1-564): T1 sequence (Q9Y5S8 1-564)
T2 sequence (P13498 1-195 partner): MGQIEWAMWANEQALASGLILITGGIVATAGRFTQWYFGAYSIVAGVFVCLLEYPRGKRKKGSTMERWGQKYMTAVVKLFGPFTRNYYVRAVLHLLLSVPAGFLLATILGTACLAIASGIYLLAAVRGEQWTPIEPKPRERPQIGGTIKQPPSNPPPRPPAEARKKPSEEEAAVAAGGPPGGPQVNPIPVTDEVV
Experimental: Experiments were performed to test the effect of NoxA1ds on O2^− production by Nox1. COS22 is a monkey kidney COST cell line expressing transgenic human p22phox and was produced by stable transfection of the full-length p22phox cDNA into parental COST wild-type cells. COS22 cells were transfected with Nox1 to express the Nox1 enzyme and were then treated with either NoxA1ds or its scrambled control (SCRMB). Production of O2^− was calculated by monitoring the reduction of cytochrome c for 15 minutes post NADPH addition and subtracting baseline cytochrome c reduction occurring in the presence of SOD.

[4] = tested on: rat aortic smooth muscle cells; assay: Calponin and osteopontin expression in stretched rat aortic smooth muscle cells (Western blot); type: cell-based; details: 10 μM added every four hours; cyclic stretch 24 hrs
Experimental: The effect of Nox1 inhibition on the expression of certain protein markers of rat aortic smooth muscle cell contractile vs. synthetic phenotypes was evaluated. Cells were subjected to 24 hrs of cyclic stretch (10%, 1 Hz) with 10 μM NoxA1ds or SCRMB control being added every four hours. […] Calponin expression during stretch was rescued by the addition of 10 μM NoxA1ds, yet was unaffected by the addition of 10 μM scrambled peptide (SCRMB). A representative Western blot is shown below the graph (FIG. 9B). Osteopontin (OPN, a marker of the […] phenotype), expression increased after 24 hrs of stretch.

Nox1-YFP = assay: Image cross correlation spectroscopy (ICCS) of R-NoxA1ds and Nox1-YFP; type: binding; details: ICCS, 100 images 0.05 s apart
Experimental: An ELISA of Nox1:NoxA1ds interaction was performed as follows. Neutravidin coated plates were incubated with biotin-tagged NoxA1ds (Biotin-NoxA1ds) or biotin-tagged SCRMB (Biotin-SCRMB) before addition of cell membranes prepared from cells transfected with Nox1 (Nox1 membrane) or transfected with an empty vector (COS22 membrane). Bound Nox1 was detected through a FITC conjugated secondary antibody (αRabbit Ab Sigma F9887) bound to the Nox1 primary antibody (rabbit αNox1 Ab (SC-25545, Santa Cruz Biotechnology)). FITC fluorescence was expressed as binding as % COS22 membranes on each experimental day. […] To further confirm the association, image cross correlation spectroscopy (ICCS) was used to determine patterns in signal fluctuation between rhodamine-labeled NoxA1ds (R-NoxA1ds) and Nox1-YFP though a sequence of 100 images 0.05 s apart. Correlation and cross-correlation was calculated using an ImageJ plugin.

| Inhibition of Nox1-derived O2- production (Nox1) | Fractional binding of Nox1-YFP and R-NoxA1ds (Nox1-YFP) | Substance | O2- production under hypoxia ([1]; hypoxia 1.0% O2, 24 hrs) | O2- production under normoxic conditions ([1]; normoxia) | Inhibition of O2- production by HT-29 cells [2] | CFP fluorescence after photobleaching of Nox1-YFP (FRET) [3] | Calponin expression during stretch [4] | Osteopontin (OPN) expression during stretch [4] |
| --- | --- | --- | --- | --- | --- | --- | --- | --- |
| did not inhibit |  | SCRMB: inactive, scrambled version of NoxA1ds (negative control) (H-LVKGPDAEKVA-NH2) [reference compound] | unaffected | negligible effect | did not inhibit | resulted in a concomitant increase in CFP fluorescence | unaffected | unaffected |
|  | ~1.0 | R-NoxA1ds: rhodamine-labeled NoxA1ds (EPVDALGKAKV-NH2; also: rhodamine label, position not given here) |  |  |  |  |  |  |
